{
  "source": "patent US20240197666A1",
  "about": "“DITERPENOID COMPOUNDS THAT ACT ON PROTEIN KINASE C (PKC)” (K-Gen Therapeutics, Inc., priority 2021, published 2024)",
  "key": {"[1]": {"assay": "Pharmacokinetic study, intravenous bolus injection in rats", "format": "in vivo, rat", "details": "for AUClast / C0 / CL / MRTInf / Vss / Vz / t1/2: rat plasma, bolus injection", "protocol": "Plasma samples were taken at 1 minute, 5 minutes, 15 minutes, 30 minutes, 1 hour, 2 hours, 4 hours, 7 hours, and 24 hours. The drug concentrations at each time point were determined by LC-MS. The results of drug concentrations and pharmacokinetic parameters are presented in the Table 6 and Table 7, respectively, below."}, "4T1-luc2 tumor": {"system": "4T1-luc2 tumor", "assay": "4T1-luc2 orthotopic breast cancer metastasis model, IT injection", "format": "in vivo, mouse", "source_text": "Syngeneic mouse models are frequently used in assessing effect of immune-modulating compounds because both innate and adaptive immune systems are intact in the wild-type mouse strains.\nEach 6-8 weeks old female Balb/c mouse was surgically implanted with 1×10^6 4T1-luc2 tumor cells in the abdominal 4th right mammary fat pad for tumor development. The animals were randomized and treatments were started when the average tumor volume reached 86 mm^3. The group assignment, treatment dose, and schedule were as follows:\nMice were monitored daily for clinical signs and body weights were measured regularly as an indirect measure of toxicity. […] .\nAfter grouping, the bioluminescence measurements were taken once per week to monitor tumor growth in the fat pads and metastasis to other organs. Briefly, the mice were weighted and intra-peritoneal injected with luciferin at 150 mg/kg. 10 minutes after the luciferin administration, the animals were pre-anesthetized with the mixture gas of oxygen and isoflurane. The animals were moved into the imaging chamber for bioluminescence measurements with IVIS (Lumina II) in a complete anesthetic state. […] The bioluminescence signal decreased to the baseline range from the third week in three animals. These three animals were monitored for 87 days and their primary tumors were cured without any metastasis (FIG. 9B-9D). […] However, all tumors in the vehicle group mice kept growing, had steady increase in the bioluminescence signals, and had metastasized before mice died before day 40. A Kaplan-Meier method was used to analyze the animal survival rate between the vehicle group (n=12) and the treated group (n=11, one animal died unexpectedly due to animal attacking). The median survival day is 35.5 for the vehicle group and is 42 for the treated group (P<0.05)."}, "C1b domain of human PKCθ": {"target": "T1, C1b domain of human PKCθ (Homo sapiens, UniProt Q04759)", "T1 construct": "Genes encoding C1b domains of human PKCα, δ, ε, θ, and PKD1 (PKCμ) were synthesized; made in house; host or cells: E. coli BL21(DE3)", "T1 sequence (Q04759 231-281 limits assumed)": "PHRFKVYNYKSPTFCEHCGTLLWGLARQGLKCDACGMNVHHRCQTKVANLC", "assay": "biochemical", "format": "binding", "details": "3H-PDBu competition", "how_it_was_run": "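GST-C1b (human, E. coli-expressed) + 3H-PDBu + compound; 37° C 10 min shaking, then ice 20 min. Filter capture, scintillation count. IC50 → Ki via Cheng-Prusoff, per-prep measured Kd.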"}},
  "data": [
    {"smiles": "CC1=C[C@H]2[C@@]3(O)[C@H](C)C[C@]4(OC(=O)[C@@H](N)CC5CCCCC5)[C@H]([C@@H]3C=C(CO)C[C@]2(O)C1=O)C4(C)C", "values": [
      {"measurement": "Concentration in Rat Plasma after Bolus Injection, Mean", "setting": "[1]; Dose 0.1 mg/kg iv, 0.0167 hour post dose", "result": 0.216, "unit": "µg/mL"},
      {"measurement": "Concentration in Rat Plasma after Bolus Injection, Mean", "setting": "[1]; Dose 0.1 mg/kg iv, 0.0833 hour post dose", "result": 0.0492, "unit": "µg/mL"},
      {"measurement": "Concentration in Rat Plasma after Bolus Injection, Mean", "setting": "[1]; Dose 0.1 mg/kg iv, 0.25 hour post dose", "result": 0.0287, "unit": "µg/mL"},
      {"measurement": "Concentration in Rat Plasma after Bolus Injection, Mean", "setting": "[1]; Dose 0.1 mg/kg iv, 0.5 hour post dose", "result": 0.0194, "unit": "µg/mL"},
      {"measurement": "Concentration in Rat Plasma after Bolus Injection, Mean", "setting": "[1]; Dose 0.1 mg/kg iv, 1 hour post dose", "result": 0.0146, "unit": "µg/mL"},
      {"measurement": "Concentration in Rat Plasma after Bolus Injection, Mean", "setting": "[1]; Dose 0.1 mg/kg iv, 2 hour post dose", "result": 0.005, "unit": "µg/mL"},
      {"measurement": "Concentration in Rat Plasma after Bolus Injection, Mean", "setting": "[1]; Dose 0.1 mg/kg iv, 4 hour post dose", "result": 0.001, "unit": "µg/mL"},
      {"measurement": "Concentration in Rat Plasma after Bolus Injection, Mean", "setting": "[1]; Dose 0.1 mg/kg iv, 7 hour post dose", "result": "<0.001", "unit": "µg/mL"},
      {"measurement": "Concentration in Rat Plasma after Bolus Injection, Mean", "setting": "[1]; Dose 0.1 mg/kg iv, 24 hour post dose", "result": "<0.001", "unit": "µg/mL"},
      {"measurement": "Concentration in Rat Plasma after Bolus Injection, Mean", "setting": "[1]; Dose 0.2 mg/kg iv, 0.0167 hour post dose", "result": 0.334, "unit": "µg/mL"},
      {"measurement": "Concentration in Rat Plasma after Bolus Injection, Mean", "setting": "[1]; Dose 0.2 mg/kg iv, 0.0833 hour post dose", "result": 0.102, "unit": "µg/mL"},
      {"measurement": "Concentration in Rat Plasma after Bolus Injection, Mean", "setting": "[1]; Dose 0.2 mg/kg iv, 0.25 hour post dose", "result": 0.065, "unit": "µg/mL"},
      {"measurement": "Concentration in Rat Plasma after Bolus Injection, Mean", "setting": "[1]; Dose 0.2 mg/kg iv, 0.5 hour post dose", "result": 0.0436, "unit": "µg/mL"},
      {"measurement": "Concentration in Rat Plasma after Bolus Injection, Mean", "setting": "[1]; Dose 0.2 mg/kg iv, 1 hour post dose", "result": 0.0376, "unit": "µg/mL"},
      {"measurement": "Concentration in Rat Plasma after Bolus Injection, Mean", "setting": "[1]; Dose 0.2 mg/kg iv, 2 hour post dose", "result": 0.0291, "unit": "µg/mL"},
      {"measurement": "Concentration in Rat Plasma after Bolus Injection, Mean", "setting": "[1]; Dose 0.2 mg/kg iv, 4 hour post dose", "result": 0.006, "unit": "µg/mL"},
      {"measurement": "Concentration in Rat Plasma after Bolus Injection, Mean", "setting": "[1]; Dose 0.2 mg/kg iv, 7 hour post dose", "result": "<0.001", "unit": "µg/mL"},
      {"measurement": "Concentration in Rat Plasma after Bolus Injection, Mean", "setting": "[1]; Dose 0.2 mg/kg iv, 24 hour post dose", "result": "<0.001", "unit": "µg/mL"},
      {"measurement": "AUClast", "setting": "[1]; 0.1 mg/kg", "result": 0.0483, "unit": "µg·h/mL"},
      {"measurement": "C0", "setting": "[1]; 0.1 mg/kg", "result": 0.314, "unit": "µg/mL"},
      {"measurement": "CL", "setting": "[1]; 0.1 mg/kg", "result": 1.97, "unit": "L/h/kg"},
      {"measurement": "MRTInf", "setting": "[1]; 0.1 mg/kg", "result": 0.873, "unit": "h"},
      {"measurement": "Vss", "setting": "[1]; 0.1 mg/kg", "result": 1.73, "unit": "L/kg"},
      {"measurement": "Vz", "setting": "[1]; 0.1 mg/kg", "result": 2.44, "unit": "L/kg"},
      {"measurement": "t1/2", "setting": "[1]; 0.1 mg/kg", "result": 0.857, "unit": "h"},
      {"measurement": "AUClast", "setting": "[1]; 0.2 mg/kg", "result": 0.119, "unit": "µg·h/mL"},
      {"measurement": "C0", "setting": "[1]; 0.2 mg/kg", "result": 0.45, "unit": "µg/mL"},
      {"measurement": "CL", "setting": "[1]; 0.2 mg/kg", "result": 1.29, "unit": "L/h/kg"},
      {"measurement": "MRTInf", "setting": "[1]; 0.2 mg/kg", "result": 2.93, "unit": "h"},
      {"measurement": "Vss", "setting": "[1]; 0.2 mg/kg", "result": 2.77, "unit": "L/kg"},
      {"measurement": "Vz", "setting": "[1]; 0.2 mg/kg", "result": 3.25, "unit": "L/kg"},
      {"measurement": "t1/2", "setting": "[1]; 0.2 mg/kg", "result": 2.29, "unit": "h"}
    ]},
    {"smiles": "CC1=C[C@H]2[C@@]3(O)[C@H](C)C[C@]4(OC(=O)[C@H](N)CCCCCCc5ccccc5)[C@H]([C@@H]3C=C(CO)C[C@]2(O)C1=O)C4(C)C", "values": [
      {"measurement": "mean body weight loss", "setting": "4T1-luc2 tumor; 20 mg/ml, 20 μl (400 μg) IT, Balb/c mice", "result": "less than 10%"},
      {"measurement": "median survival day", "setting": "4T1-luc2 tumor; 20 mg/ml, 20 μl (400 μg) IT, n=11", "result": 42, "unit": "days"},
      {"measurement": "animals with primary tumors cured without any metastasis", "setting": "4T1-luc2 tumor; monitored for 87 days, single IT treatment", "result": "three"},
      {"measurement": "Ki", "setting": "C1b domain of human PKCθ", "result": "0.01 to 0.03", "unit": "µM"}
    ]}
  ]
}
